According to patent US20080132689A1, “Labile Linkage for Compound Delivery to a Cell” (priority 2003, published 2008):

Experiments:
[1] = Measurement of acetal kinetics (rate of acetal hydrolysis in buffered solutions, by absorbance); assay type: physicochemical
From the text: To illustrate the rate of cleavage of several example ortho carboxy phenol derived acetals, we synthesized the molecules 1-3 (shown in FIG. 2) and measured the rates of acetal hydrolysis for each at pH 5.2-7.3. • Acetal 1. R′, R=alkyl; and R1, R2, R3, R4=hydrogen • Acetal 2. R′, R=alkyl; R1, R4=hydrogen; R2=carboxyl (carbon-containing group); R3=hydroxyl (heteroatom) • Acetal 3. R′=alkyl; R, R2, R3, R4=hydrogen; and R1=carboxyl (carbon-containing group)
To determine the rate of acetal hydrolysis, compounds 1-3 were added to buffered solutions (pH 7-8 with 5 mM HEPES, or pH 5-7 with 5 mM acetate) at various pH values and the absorbance of the solution was measured as a function of time (λ=302 nm for 1 and 2 and 310 nm for 3). The rate constant was determined by determining the slope of the line derived from plotting ln[1-((A∞-At)/(A∞-AO))] as a function of time t, where A∞ is absorbance after>3 hours of hydrolysis, At is the absorbance at time t, and AO is the initial absorbance. The half-life of the hydrolysis equals ln[2] divided by the rate constant.

[2] = system: Hepa mouse hepatoma cells; assay: DNA transfection with crosslinked pCIluc/DW921 complexes, luciferase expression; assay type: cell-based; conditions: pCIluc 10 μg/mL, DW921 100 μg/mL, 48 h, average of two wells
Procedure: To a solution of plasmid DNA pCIluc (10 μg/mL, 0.075 mM in phosphate, 2.6 μg/μL pCIluc; prepared according to Danko et al. 1997) in 0.5 mL of 150 mM NaCl and 5 mM TAPS pH 9 was added 100 μg/mL DW921. The complexes were then reacted with glutaraldehyde, periodate oxidized phenyl glucoside (another crosslinker containing a labile bond), or periodate oxidized salicylic galactoside at 1, 2, 4, 8, or 16 μg/mL. The complexes were then added (200 μL) to wells containing Hepa mouse hepatoma cells in Dulbecco's modified Eagle's Media containing 10% fetal bovine serum. The cells were allowed to incubate for 48 h. The cells were then harvested and assayed for luciferase expression as previously reported. The amount of transfection was reported in relative light units and is the average transfection for two separate wells of cells.

In the case of `CC(C)CCOC(C)Oc1ccccc1C(=O)O` (centres unmarked) [Acetal 1], the “half-life (minutes) of acetal hydrolysis” value ([1]; pH 7.3) is reported as 1.0 min.
With `CC(C)[C@@H]1CC[C@@H](C)C[C@H]1OCOc1c(C(=O)O)cccc1C(=O)O` [Acetal 3] the “half-life (minutes) of acetal hydrolysis” value ([1]; pH 5.2) was 0.22 min and the “half-life (minutes) of acetal hydrolysis” value ([1]; pH 6.5) was 4.7 min.
For `O=CCCCC=O` [glutaraldehyde], the “Relative Light Units” value ([2]; 1 μg/mL dialdehyde crosslinker) was 915 Relative Light Units, the “Relative Light Units” value ([2]; 2 μg/mL dialdehyde crosslinker) was 620 Relative Light Units and the “Relative Light Units” value ([2]; 4 μg/mL dialdehyde crosslinker) was 1,400 Relative Light Units. The “Relative Light Units” value ([2]; 8 μg/mL dialdehyde crosslinker) was 590 Relative Light Units and the “Relative Light Units” value ([2]; 16 μg/mL dialdehyde crosslinker) was 565 Relative Light Units.
